Legend:
oral LD 50 in rats = format: in vivo; conditions: given orally in rats
Procedure: Its LD 50 is high and was determined as to be greater than 2000 mg/Kg given orally in rats; furthermore there are no special handling requirements.

[1] = solubility of soluble laminarin; format: physicochemical
[2] = system: target cells of tumor cell line YAC-1; assay: in vitro cytotoxicity assay of NK cells (mouse splenocytes pre-treated with glucan) on YAC-1 target cells, CYTOTOX 96 LDH release; format: cell-based, Balb/c mice; set-up: stimulated NK cells more cytotoxic than the control: concentration or dose not given beside the values; conditions: for NK cell killing more active than BEI: versus BEI-stimulated cell killing; for NK cell killing more active than lentinan: versus Lentinan-stimulated NK cell killing; for stimulated NK cells more cytotoxic than the control: versus unstimulated NK cells
Procedure: In that respect, Applicants first carried out an in vitro cytotoxicity assay on spleen cells isolated from spleen of Balb/c mice by standard methods.
These tests were conducted to evaluate the effects of soluble laminarin on the cytotoxicity of NK (Natural Killer) cells of mouse and to compare these effects with those of two known glucans, ie.
The spleens isolated from the above said Balb/c mice were placed into Petri dishes containing RPMI 1640 medium obtained from Life Technologies USA, supplemented with 5% by weight of FCS (fetal calf serum from Life Technologies USA). The spleens were cut into small pieces and a suspension was made by pressing the minced spleens against the bottom of Petri dishes containing PBS (Phosphate Buffered Saline obtained from Biowhitaker Inc,8830 Biggsford Road, Walkersville, Md. 21793 USA). The thus obtained pieces of tissue were gently teased over stainless steel screens using a plunger of a 5-ml syringe. Large debris and cell clumps were removed by layering the cell suspension over 3 ml of heat-inactivated FCS for 10 minutes on ice. After elimination of erythrocytes by incubation during 10 seconds in distilled water and five washes in cold PBS, the thus obtained cells which are called splenocytes, were resuspended in PBS and counted.
The evaluation of the cytotoxicity of these cell suspensions was conducted by suing a non radioactive cytotoxicity assay marketed under the trademark CYTOTOX 96 by Promega, Madison, Wis., USA.
For these experiments, the splenocytes which are also called “effector cells” were pre-treated during 30 minutes by mixing the suspensions containing them respectively with soluble laminarin, with lentinan and with BEI glucan; the mixtures were subsequently incubated with suspensions of target cells of tumor cell line YAC-1 which is known to be relatively […] to normal inactivated N K cells.
The specificity of the assay was established by using the following three different ratios effector cells/target cells denoted ET: 10:1, 50:1 and 100:1.
For each ratio, 3 counts were carried out and experiments were repeated 3 times on 3 different days.
Controls consisted of effector cells incubated only with PBS.
More particularly, the above cell suspensions of splenocytes (effector cells) were diluted to 10^6 cells/ml and placed in individual wells of V-shaped 96-well microplates at a concentration of 0.1 ml/well.
Laminarin, lentinan and BEI glucan which occur in the form of powders, were added after dissolution in PBS at an identical concentration of 2 μg/ml in PBS and the plates were incubated for 30 minutes at 37° C. in an humidified CO2 incubator.
After incubation, the plates i.e. the incubated cells contained in the wells were washed three times with RPMI 1640 medium, and 50 μl of the suspension of target cell line YAC-1 were added in each well, respecting the above “effector cells/target cells” ratios or E T: 10:1, 50:1 and 100:1.
For each of these ratios, 3 individual wells were used, the number of target cells being respectively 10^4,2×10^3 and 1×10^3.
In addition, target cells for spontaneous release control, target cells for maximum release control and effector cells release control were introduced into appropriate wells, i.e. 3 individual wells for each concentration used.
Basically, it is necessary to obtain the values of spontaneous release from both target and effector cells, and these values serve as a background. The maximum release control serves as 100%.
After spinning the plates at 250 g for 5 minutes in a centrifuge, the plates were incubated for 4 hours at 35° C. in a humidified CO2 incubator.
For evaluating the cytotoxicity activity of the effector or N K cells, procedure was as follows, using the instructions of the manufacturer PROMEGA.
A quantity of 10 μl of lysis solution, included in the Kit, was added 45 min before the end of incubation into appropriate control wells, i.e. into wells with maximum release control. […]

[3] = system: mouse breast cancer cell line 64 Ptas; assay: tumor growth in vivo in mice inoculated with breast cancer cells; conditions: daily intraperitoneal injection during 14 days; doses 100 and 250 μg per injection (dose of the value not stated)
Procedure: The above said data have been confirmed by additional experiments where the effects of soluble laminarin on tumor growth in vivo were evaluated; yeast derived glucan BEI was used for comparison.
In these additional experiments, mice were inoculated with mouse breast cancer cell line 64 Ptas. Experimental treatment was achieved by daily intraperitoneal injection during 14 days of two different doses of soluble laminarin and BEI diluted in PBS; the said two different doses were respectively 100 and 250 μg of laminarin per injection.
At the end of the 14 days treatment, the mice were killed, tumors were removed and weighted.

laminarin [soluble laminarin]
LD 50 (oral LD 50 in rats): greater than 2000 mg/Kg | solubility in ethanol, 2-propanol and acetone ([1]; ethanol, 2-propanol and acetone): substantially insoluble | water-soluble ([1]; water): up to 60 g/l | NK cell killing more active than BEI ([2]; ET 10:1): 132% | NK cell killing more active than lentinan ([2]; ET 10:1): 133% | stimulated NK cells more cytotoxic than the control ([2]; ET 10:1): 245% | NK cell killing more active than BEI ([2]; ET 50:1): 122% | NK cell killing more active than lentinan ([2]; ET 50:1): 123% | stimulated NK cells more cytotoxic than the control ([2]; ET 50:1): 196% | NK cell killing more active than BEI ([2]; ET 100:1): 129% | NK cell killing more active than lentinan ([2]; ET 100:1): 130% | stimulated NK cells more cytotoxic than the control ([2]; ET 100:1): 180% | weight of the tumors with respect to the weight of the tumors treated with the control [3]: 28%

From US6660722B2, “Therapeutical treatments” (Laboratoires Goemar S.A., priority 2001, dated 2003)
